Measured values published in ChEMBL document CHEMBL2177009, “The use of novel C-methylated spermidine derivatives to investigate the regulation of polyamine metabolism” (J Med Chem, 2011).

What was measured:
[1] = molecular target: T1, Peroxisomal N(1)-acetyl-spermine/spermidine oxidase (Homo sapiens, UniProt Q6QHF9); assay: Metabolic stability of the compound assessed as human recombinant APAO-mediated compound degradation at 0.5 to 1 mM after 5 to 60 mins in presence of benzaldehyde; assay type: ADME; details: 1000 µM
T1 sequence (Q6QHF9 whole entry): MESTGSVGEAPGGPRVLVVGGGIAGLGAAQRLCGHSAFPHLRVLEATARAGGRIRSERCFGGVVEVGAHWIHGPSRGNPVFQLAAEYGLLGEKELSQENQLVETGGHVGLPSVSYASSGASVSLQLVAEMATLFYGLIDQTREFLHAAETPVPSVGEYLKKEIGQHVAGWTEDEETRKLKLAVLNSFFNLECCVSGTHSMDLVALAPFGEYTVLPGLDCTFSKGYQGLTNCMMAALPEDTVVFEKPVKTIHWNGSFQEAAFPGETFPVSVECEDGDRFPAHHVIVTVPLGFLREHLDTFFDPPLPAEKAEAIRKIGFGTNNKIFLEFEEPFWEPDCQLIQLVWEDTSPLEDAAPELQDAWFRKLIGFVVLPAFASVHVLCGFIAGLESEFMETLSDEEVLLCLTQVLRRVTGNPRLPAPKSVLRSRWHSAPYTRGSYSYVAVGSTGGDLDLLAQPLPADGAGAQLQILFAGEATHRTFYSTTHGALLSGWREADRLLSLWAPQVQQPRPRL

[2] = test system: DU-145; assay: Effect on intracellular level of S-adenosyl-Lmethionine in human DU145 cells assessed per million cells at 100 uM after 72 hrs in presence of serum amine oxidase inhibitor aminoguanidine and ODC inhibitor DFMO (RVb = 80 +/- 5 pmol/10^6 cells); assay type: functional
[3] = Cytotoxicity against human DU145 cells assessed as cell growth at 100 uM after 72 hrs in presence of serum amine oxidase inhibitor aminoguanidine (RVb = 49 +/- 2 pmol/10^6 cells); assay type: cell-based, DU-145; details: read-out: Activity
[4] = test system: DU-145; assay: Metabolic stability in human DU145 cells assessed as intracellular Ac-8-Methylspermidine level per ug DNA at 100 uM after 24 hrs in presence of serum amine oxidases inhibitor aminoguanidine; assay type: ADME, cell-based; details: du-145, 24 h
[5] = test system: DU-145; assay: Metabolic stability of the compound in human DU145 cells assessed as compound metabolite-mediated cell toxicity at 100 uM after 48 hrs by MTT assay in presence of bovine serum amine oxidase; assay type: ADME, cell-based; details: du-145, 48 h
[6] = test system: DU-145; assay: Metabolic stability in human DU145 cells assessed as intracellular spermine level per ug DNA at 100 uM after 72 hrs in presence of serum amine oxidases inhibitor aminoguanidine (reference value: 154 +/- 7 pmol/ug DNA); assay type: ADME, cell-based; details: du-145, 72 h
[7] = test system: DU-145; assay: Metabolic stability of the compound in human DU145 cells assessed as metabolites-mediated cell toxicity at 10 uM after 48 hrs by MTT assay in presence of bovine serum amine oxidase; assay type: ADME, cell-based; details: du-145, 48 h
[8] = test system: DU-145; assay: Metabolic stability in human DU145 cells assessed as intracellular compound/methylspermine level per ug DNA at 100 uM after 24 hrs in presence of serum amine oxidases inhibitor aminoguanidine; assay type: ADME, cell-based; details: du-145, 24 h
[9] = test system: DU-145; assay: Metabolic stability in human DU145 cells assessed as intracellular Ac-8-Methylspermidine level per ug DNA at 100 uM after 48 hrs in presence of serum amine oxidases inhibitor aminoguanidine; assay type: ADME, cell-based; details: du-145, 48 h
[10] = test system: DU-145; assay: Effect on intracellular level of decarboxylated S-adenosyl-L-methionine in human DU145 cells assessed per million cells at 100 uM after 72 hrs in presence of serum amine oxidase inhibitor aminoguanidine and ODC inhibitor DFMO (RVb = 263 +/- 14 pmol/10^6 cells); assay type: functional
[11] = test system: DU-145; assay: Metabolic stability in N1,N11-diethyl-norspermine pretreated human DU145 cells expressing SSAT assessed as intracellular accumulation of acetylated derivatives of compound at 100 uM after 48 hrs; assay type: ADME, cell-based; details: du-145, 48 h
[12] = test system: DU-145; assay: Metabolic stability in N1,N11-diethyl-norspermine pretreated human DU145 cells expressing SSAT assessed as accumulation of acetylated derivatives of compound in medium at 100 uM after 48 hrs; assay type: ADME, cell-based; details: du-145, 48 h
[13] = test system: DU-145; assay: Metabolic stability in human DU145 cells assessed as intracellular compound level per ug DNA at 100 uM after 48 hrs in presence of serum amine oxidases inhibitor aminoguanidine; assay type: ADME, cell-based; details: du-145, 48 h
[14] = test system: DU-145; assay: Metabolic stability in human DU145 cells assessed as intracellular spermidine level per ug DNA at 100 uM after 24 hrs in presence of serum amine oxidases inhibitor aminoguanidine (reference value: 154 +/- 7 pmol/ug DNA); assay type: ADME, cell-based; details: du-145, 24 h
[15] = test system: DU-145; assay: Metabolic stability in human DU145 cells assessed as intracellular compound/methylspermine level per ug DNA at 100 uM after 48 hrs in presence of serum amine oxidases inhibitor aminoguanidine; assay type: ADME, cell-based; details: du-145, 48 h
[16] = test system: DU-145; assay: Metabolic stability in human DU145 cells expressing SSAT assessed as accumulation of acetylated derivatives of compound in medium at 100 uM after 48 hrs; assay type: ADME, cell-based; details: du-145, 48 h
[17] = test system: DU-145; assay: Metabolic stability in human DU145 cells assessed as intracellular compound/methylspermine level per ug DNA at 100 uM after 72 hrs in presence of serum amine oxidases inhibitor aminoguanidine; assay type: ADME, cell-based; details: du-145, 72 h
[18] = test system: DU-145; assay: Metabolic stability in human DU145 cells assessed as intracellular spermine level per ug DNA at 100 uM after 48 hrs in presence of serum amine oxidases inhibitor aminoguanidine (reference value: 133 +/- 4 pmol/ug DNA); assay type: ADME, cell-based; details: du-145, 48 h
[19] = test system: DU-145; assay: Metabolic stability in human DU145 cells assessed as intracellular compound level per ug DNA at 100 uM after 72 hrs in presence of serum amine oxidases inhibitor aminoguanidine; assay type: ADME, cell-based; details: du-145, 72 h
[20] = test system: DU-145; assay: Metabolic stability in human DU145 cells assessed as intracellular methylspermine level per ug DNA at 100 uM after 48 hrs in presence of serum amine oxidases inhibitor aminoguanidine; assay type: ADME, cell-based; details: du-145, 48 h
[21] = test system: DU-145; assay: Metabolic stability in human DU145 cells assessed as intracellular spermine level per ug DNA at 100 uM after 24 hrs in presence of serum amine oxidases inhibitor aminoguanidine (reference value: 122 +/- 11 pmol/ug DNA); assay type: ADME, cell-based; details: du-145, 24 h
[22] = test system: DU-145; assay: Metabolic stability in human DU145 cells assessed as intracellular methylspermine level per ug DNA at 100 uM after 72 hrs in presence of serum amine oxidases inhibitor aminoguanidine; assay type: ADME, cell-based; details: du-145, 72 h
[23] = test system: DU-145; assay: Metabolic stability in human DU145 cells assessed as intracellular compound level per ug DNA at 100 uM after 24 hrs in presence of serum amine oxidases inhibitor aminoguanidine; assay type: ADME, cell-based; details: du-145, 24 h
[24] = test system: DU-145; assay: Metabolic stability in human DU145 cells assessed as intracellular Ac-8-Methylspermidine level per ug DNA at 100 uM after 72 hrs in presence of serum amine oxidases inhibitor aminoguanidine; assay type: ADME, cell-based; details: du-145, 72 h
[25] = test system: DU-145; assay: Metabolic stability in human DU145 cells assessed as intracellular spermidine level per ug DNA at 100 uM after 48 hrs in presence of serum amine oxidases inhibitor aminoguanidine (reference value: 137 +/- 5 pmol/ug DNA); assay type: ADME, cell-based; details: du-145, 48 h
[26] = test system: DU-145; assay: Metabolic stability in human DU145 cells assessed as intracellular spermidine level per ug DNA at 100 uM after 72 hrs in presence of serum amine oxidases inhibitor aminoguanidine (reference value: 137 +/- 3 pmol/ug DNA); assay type: ADME, cell-based; details: du-145, 72 h
[27] = test system: DU-145; assay: Metabolic stability in human DU145 cells assessed as intracellular putrescine level per ug DNA at 100 uM after 24 hrs in presence of serum amine oxidases inhibitor aminoguanidine (reference value: 11 +/- 2 pmol/ug DNA); assay type: ADME, cell-based; details: du-145, 24 h
[28] = test system: DU-145; assay: Metabolic stability in human DU145 cells assessed as intracellular putrescine level per ug DNA at 100 uM after 72 hrs in presence of serum amine oxidases inhibitor aminoguanidine (reference value: 6 pmol/ug DNA); assay type: ADME, cell-based; details: du-145, 72 h
[29] = test system: DU-145; assay: Metabolic stability in human DU145 cells assessed as intracellular putrescine level per ug DNA at 100 uM after 48 hrs in presence of serum amine oxidases inhibitor aminoguanidine (reference value: 7 +/- 1 pmol/ug DNA); assay type: ADME, cell-based; details: du-145, 48 h
[30] = test system: DU-145; assay: Metabolic stability in human DU145 cells assessed as intracellular methylspermine level per ug DNA at 100 uM after 24 hrs in presence of serum amine oxidases inhibitor aminoguanidine; assay type: ADME, cell-based; details: du-145, 24 h
[31] = molecular target: T1, Peroxisomal N(1)-acetyl-spermine/spermidine oxidase; assay: Metabolic stability of the compound assessed as human recombinant APAO-mediated compound degradation at 0.5 to 1 mM after 5 to 60 mins; assay type: ADME; details: 1000 µM

Stability [1]	Drug metabolism [6] [pmol]	Drug metabolism [8] [pmol]	Stability [12]	Drug metabolism [13] [pmol]	Drug metabolism [14] [pmol/ug DNA]	Drug metabolism [15] [pmol]	Drug metabolism [17] [pmol]	Drug metabolism [18] [pmol]	Drug metabolism [19] [pmol]	Drug metabolism [20] [pmol]	Drug metabolism [21] [pmol]	Drug metabolism [22] [pmol]	Drug metabolism [23] [pmol]	Drug metabolism [25] [pmol/ug DNA]	Drug metabolism [26] [pmol]	Structure (SMILES)	Activity [2] [pmol]	viability at 72 h, 100 µM [3] [%]	Stability [7]	Activity [10] [pmol]	further results
Unstable	70	257	Unstable	287	30	326	375	57	332	39	83	43	257	18	20	CC(N)CCCNCCCN (stereo not given)	138	93	Stable	60	Drug metabolism [4]: 15 pmol; Stability [5]: Unstable; Drug metabolism [9]: 7 pmol; Stability [11]: Unstable; Stability [16]: Unstable; Drug metabolism [24]: 4 pmol
Unstable	75	200	Unstable	135	39	202	214	72	134	77	67	80	133	38	38	CC(CN)CNCCCCN.Cl (stereo not given)	148	86	Stable	<5	Drug metabolism [27]: < 5 pmol; Drug metabolism [28]: < 5 pmol; Drug metabolism [29]: < 5 pmol; Stability [11]: Unstable; Drug metabolism [30]: 67 pmol; Stability [31]: Unstable
Stable	115	181	Unstable	168	23	168	176	103	176	–	92	–	181	18	22	CC(CCN)NCCCCN.Cl (stereo not given)	149	91	Stable	109	Drug metabolism [27]: < 5 pmol
Unstable	74	301	Unstable	239	15	283	371	55	311	44	62	60	264	11	16	C[C@H](N)CCNCCCCN	177	84	Stable	49	Drug metabolism [30]: 37 pmol
Unstable	–	–	Unstable	–	–	–	–	–	–	–	–	–	–	–	–	NCCCCNCCCN [SPERMIDINE]	126	89	Stable	<5	Stability [5]: Unstable
–	–	–	Unstable	–	–	–	–	–	–	–	–	–	–	–	–	CC(=O)NCCCNCCCCN	–	–	–	–	–
